From publication PMC2582943 (Antiviral Research, 2008)
“And” between values parts separate entries of the source, which are not always exact repeats. Equal values may be shown once. “Also recorded” adds a separate entry of the source. Where a name gives a salt, the structure may show the parent alone. Read-outs that look alike come from different tables or passages of the source. Peptide text beside a SMILES is read from it.

Tests used:
[1] = test system: SARS-CoV (strain Urbani); assay: microbe, parasite or virus in culture; format: cell-based
[2] = test system: SARS-CoV (strain Urbani); assay: microbe, parasite or virus in culture; format: cell-based; remark: listed apart in the source
[3] = test system: Vero 76 cells; assay: cells; format: cell-based, African green monkey
[4] = test system: SARS-CoV CHUK-W1 strain; assay: microbe, parasite or virus in culture; format: cell-based
[5] = test system: SARS-CoV Frankfurt-1 strain; assay: microbe, parasite or virus in culture; format: cell-based
[6] = test system: SARS-CoV Toronto-2 strain; assay: microbe, parasite or virus in culture; format: cell-based
[7] = test system: SARS-CoV Frankfurt-1 strain; assay: microbe, parasite or virus in culture; format: cell-based; remark: listed apart in the source
[8] = test system: SARS-CoV Toronto-2 strain; assay: microbe, parasite or virus in culture; format: cell-based; remark: listed apart in the source
[9] = test system: SARS-CoV CHUK-W1 strain; assay: microbe, parasite or virus in culture; format: cell-based; remark: listed apart in the source
[10] = test system: mice; settings: mouse, in vivo, ip; cited from earlier work
[11] = test system: BALB/c mice; settings: mouse, in vivo, ip
[12] = test system: SARS-CoV
[13] = test system: lungs; settings: mouse, in vivo
[14] = test system: SARS-CoV (Urbani); set-up: species or system BALB/c mice; settings: mouse, in vivo
[15] = Severe acute respiratory syndrome coronavirus, Vero 76, read-out: Neutral red uptake assay EC50
[16] = Severe acute respiratory syndrome coronavirus, Vero 76, read-out: Virus yield reduction assay EC90
[17] = Chlorocebus sabaeus, Vero 76, read-out: Neutral red uptake assay IC50
[18] = Chlorocebus sabaeus, Vero 76, read-out: Virus yield reduction assay IC50
[19] = Severe acute respiratory syndrome coronavirus, Vero 76, read-out: VYR assay EC90 ± S.D.
[20] = Severe acute respiratory syndrome coronavirus, Vero 76, read-out: Neutral red uptake assay EC50 ± S.D.
[21] = Chlorocebus sabaeus, Vero 76, read-out: Neutral red uptake assay IC50 ± S.D.
[22] = read-out: Neutral red uptake assay IC50 ± S.D.
[23] = read-out: Neutral red uptake assay EC50
[24] = read-out: Virus yield reduction assay EC90
[25] = read-out: Neutral red uptake assay IC50
[26] = read-out: Virus yield reduction assay IC50
[27] = read-out: VYR assay EC90 ± S.D.
[28] = read-out: Neutral red uptake assay EC50 ± S.D.

COc1ccc2c(c1)N(C[C@H](C)CN(C)C)c1ccccc1S2 [Methotrimeprazine]
Neutral red uptake assay SI [1]: 1.4 | EC50 [1, 15]: 19 ± 8.1 µM | Virus yield reduction assay SI [2]: 1.7 | EC90 [2, 16]: 12.3 ± 1.7 µM | IC50 [3, 17]: 26 ± 10.8 µM | IC50 [3, 18]: 21 ± 5.4 µM

CCN(CC)C(C)CN1c2ccccc2Sc2ccccc21 (stereo not shown) [Ethopropazine]
Neutral red uptake assay SI [1]: 2.0 | EC50 [1, 15]: 30.5 ± 27.5 µM | Virus yield reduction assay SI [2]: 1.5 | EC90 [2, 16]: 42 µM | IC50 [3, 17]: 61.3 ± 34.7 µM | IC50 [3, 18]: 61.3 ± 34.7 µM

c1ccc2c(c1)Nc1ccccc1O2 [Phenoxazine]
Inhibition of virus replication in vitro (in words) [1]: essentially inactive | Neutral red uptake assay SI [1]: <1 | IC50 [3, 17]: 74.5 ± 20.2 µM

CN(C)CC/C=C1/c2ccccc2Sc2ccc(Cl)cc21 [Chlorprothixene]
EC90 [4, 19]: 12.1 ± 4.2 µM | EC90 [5, 19]: 12.3 ± 0.6 µM | EC90 [6, 19]: 13 ± 1 µM | Neutral red uptake assay SI [1]: 1.9 and 1.4 | EC50 [1, 15]: 9.5 ± 5.7 µM | EC50 [1, 20]: 12 ± 3.5 µM | Virus yield reduction assay SI [2]: 1.8 | EC90 [2, 19]: 10.5 ± 5.2 µM | EC90 [2, 16]: 10.4 ± 4.2 µM | Neutral red uptake assay SI [7]: 1.2 | EC50 [7, 20]: 11.1 ± 3.4 µM | Neutral red uptake assay SI [8]: 1.2 | EC50 [8, 20]: 12.9 ± 3.6 µM | IC50 [3, 21]: 13 ± 2 µM | IC50 [3, 18]: 18.3 ± 3.4 µM | IC50 [3, 22]: 18.5 µM and 15.8 µM and 16.7 µM | Neutral red uptake assay SI [9]: 1.5 | EC50 [9, 20]: 12.6 ± 6.5 µM

CN(C)CCCN1c2ccccc2Sc2ccc(C(F)(F)F)cc21.Cl [Trifluopromazine·HCl]
Neutral red uptake assay SI [1]: 1.4 | EC50 [1, 23]: 13.3 ± 5.8 µM | Virus yield reduction assay SI [2]: 1.4 | EC90 [2, 24]: 12.8 ± 1.9 µM | IC50 [3, 25]: 18 ± 5.6 µM | IC50 [3, 26]: 18 ± 5.6 µM

c1ccc2c(c1)Nc1ccccc1S2 [Phenothiazine]
Neutral red uptake assay SI [1]: 2.6 | IC50 [3, 17]: 56.5 ± 61.5 µM

c1ccc2c(c1)Oc1ccccc1S2 [Phenoxathiin]
Neutral red uptake assay SI [1]: 1.1 | EC50 [1, 15]: 763 ± 475 µM | Virus yield reduction assay SI [2]: 1.3 | EC90 [2, 16]: 752 ± 497 µM | IC50 [3, 17]: 858 ± 208 µM | IC50 [3, 18]: 968 ± 65 µM

CC(C)C[C@H](NC(=O)OCc1ccccc1)C(=O)N[C@@H](CC(C)C)C(=O)N[C@@H](Cc1ccc(O)cc1)C(=O)CF [Calpain Inhibitor IV] (HELM PEPTIDE1{[O=C(OCc1ccccc1)[*:2]].L.L.Y.[FC[*:1]]}$$$$V2.0)
EC90 [4, 27]: 6.5 ± 3.6 µM | EC90 [5, 27]: 6.5 ± 3.6 µM | EC90 [6, 27]: 9.6 ± 3.1 µM | Inhibition of virus replication in vitro (in words) [1]: inhibited virus replication as expected | Neutral red uptake assay SI [1]: 9.4 | EC50 [1, 23]: 2.6 µM | EC50 [1, 28]: 2.6 ± 0.5 µM | Virus yield reduction assay SI [2]: 3.3 | EC90 [2, 27]: 7.2 ± 0.9 µM | EC90 [2, 24]: 7.2 µM | Neutral red uptake assay SI [7]: 9.5 | EC50 [7, 28]: 4.6 ± 2.1 µM | Neutral red uptake assay SI [8]: 8.3 | EC50 [8, 28]: 5.4 ± 1.4 µM | IC50 [3, 25]: 24.7 ± 7 µM | IC50 [3, 22]: 24.7 µM and 44 µM and 30 µM and 45 µM | IC50 [3, 26]: 33 ± 4.1 µM | EC50 [9, 28]: 2.6 ± 1.4 µM

OCCCN1c2ccccc2Sc2ccc(Cl)cc21 [2-Chloro-10-(3-chloropropanol)-10H-phenothiazine]
Inhibition of virus replication in vitro (in words) [1]: essentially inactive | Neutral red uptake assay SI [1]: <1 | EC50 [1, 23]: 23 ± 11 µM | Virus yield reduction assay SI [2]: <1 | EC90 [2, 24]: 27 ± 16.8 µM | IC50 [3, 25]: 20.8 ± 8.1 µM | IC50 [3, 26]: 20.8 ± 8.1 µM

CN(C)CCCN1c2ccccc2Sc2ccccc21 [Promazine, 10-(3-(dimethylamino)propyl)phenothiazine]
EC90 [4, 19]: 16.5 ± 11.1 µM | EC90 [5, 19]: 11.6 ± 6.3 µM | LD50 [10]: 140 mg/(kg day) | Lethality ([11]; BALB/c): lethal to all mice by day 3 | Lethality [11]: somewhat lethal | EC90 [6, 19]: 20.7 ± 9.5 µM | Neutral red uptake assay SI [1]: 1.2 and <1 | EC50 [1, 15]: 10.8 ± 8.1 µM | EC50 [1, 20]: 14 ± 6.1 µM | Virus yield reduction assay SI [2]: 2.1 | EC90 [2, 19]: 7.8 ± 3.1 µM | EC90 [2, 16]: 8.3 ± 2.8 µM | Virucidal activity (virus titer reduction after exposure) [12]: did not result in virus titer reduction | Neutral red uptake assay SI [7]: 1.6 | EC50 [7, 20]: 21 ± 15.4 µM | Neutral red uptake assay SI [8]: 1.5 | EC50 [8, 20]: 22.6 ± 12.8 µM | IC50 [3, 17]: 13.5 ± 6.2 µM | IC50 [3, 18]: 18.2 ± 14.6 µM | Histopathological examination of lungs [13]: no signs of pathology | Duration of virus replication in the lungs (in words) [14]: prolonged virus replication to 14 days; also recorded: significantly prolonged | Virus titer ± S.D., Day 3 [14]: 5.6 ± 1.0 Log10 CCID50/g and 5.6 ± 0.4 Log10 CCID50/g and 5.7 ± 0.3 Log10 CCID50/g and 5.6 ± 0.0 Log10 CCID50/g and 5.8 ± 0.4 Log10 CCID50/g and 6.0 ± 0.6 Log10 CCID50/g | Virus titer ± S.D., Day 14 [14]: 3.4 ± 0.1 Log10 CCID50/g and 3.4 ± 0.0 Log10 CCID50/g | Inhibition of virus replication in the lungs, therapeutic treatment (in words) ([14]; ip): not efficacious | Reduction of viral replication in the lungs at day 3 (in words) ([14]; ip): did not reduce virus lung titers; also recorded: no significant reduction | Virus titer ± S.D., Day 3 ([14]; ip): 5.6 ± 0.0 Log10 CCID50/g and 6.0 ± 0.6 Log10 CCID50/g and 5.4 ± 0.1 Log10 CCID50/g | Virus titer ± S.D., Day 7 ([14]; ip): <0.75 Log10 CCID50/g | Neutral red uptake assay SI [9]: 2.2 | EC50 [9, 20]: 15.6 ± 8.5 µM

CC(=O)c1ccc2c(c1)N(CCCN1CCN(CCO)CC1)c1ccccc1S2 [Acetophenazine maleate]
EC90 [4, 19]: 11.2 ± 3.2 µM | EC90 [5, 19]: 10 ± 5.2 µM | EC90 [6, 19]: 13 µM | EC50 [1, 15]: 6.6 ± 3.3 µM | EC50 [1, 20]: 8.1 ± 1.4 µM | EC90 [2, 19]: 12.3 ± 2.1 µM | EC90 [2, 16]: 10 ± 5 µM | EC50 [8, 20]: 11.5 ± 3.7 µM | IC50 [3, 21]: 14.3 ± 6.4 µM | IC50 [3, 18]: 13.2 ± 1.6 µM | IC50 [3, 22]: 18 µM and 15.5 µM and 13.7 µM | EC50 [9, 20]: 9.6 ± 7.6 µM

OCCN1CCN(CCCN2c3ccccc3Sc3ccc(Cl)cc32)CC1 [Perphenazine]
Neutral red uptake assay SI [1]: 1.6 | EC50 [1, 23]: 9.7 ± 1.2 µM | Virus yield reduction assay SI [2]: 1.9 | IC50 [3, 18]: 15.8 ± 3.4 µM

CN1CCCC1CN1c2ccccc2Sc2ccccc21.Cl (stereo not shown) [10-(1-Methyl-2-pyrrolidinymethyl)-phenothiazine·HCl]
EC90 [4, 27]: 31.3 ± 14.2 µM | EC90 [5, 27]: 23.7 ± 6 µM | EC90 [6, 27]: 41.7 ± 4 µM | EC90 [2, 27]: 28.3 ± 12.9 µM | EC90 [2, 24]: 16.9 ± 9.7 µM | EC50 [7, 28]: 24.3 ± 7.4 µM | EC50 [8, 28]: 28.5 ± 8.1 µM | IC50 [3, 25]: 39.9 ± 0.2 µM | IC50 [3, 22]: 39.7 µM and 32.3 µM and 48 µM and 42.3 µM | IC50 [3, 26]: 39.9 ± 0.2 µM | EC50 [9, 28]: 19 ± 2.6 µM

CN1CCN(CCCN2c3ccccc3Sc3ccc(C(F)(F)F)cc32)CC1 [Trifluoperazine dimaleate]
Neutral red uptake assay SI [1]: 1.3 | EC50 [1, 15]: 7.3 ± 4.7 µM | Virus yield reduction assay SI [2]: <1 | EC90 [2, 24]: 10.2 ± 4.4 µM | IC50 [3, 17]: 9.5 ± 3.1 µM | IC50 [3, 18]: 8 ± 2.1 µM

CCC(=O)c1ccc2c(c1)N(CCCN(C)C)c1ccccc1S2 [Propionylpromazine·HCl]
Inhibition of virus replication in vitro (in words) [1]: essentially inactive | Neutral red uptake assay SI [1]: <1 | EC50 [1, 15]: 24.3 ± 15.6 µM | Virus yield reduction assay SI [2]: 1.4 | IC50 [3, 18]: 19.3 ± 2.2 µM

CCOS(=O)(=O)[O-].CC[n+]1c2ccccc2nc2ccccc21 [Phenazine ethosulfate]
Neutral red uptake assay SI [1]: 1.3 | EC50 [1, 23]: 5.2 ± 2.9 µM | Virus yield reduction assay SI [2]: 1.1 | EC90 [2, 24]: 6.1 ± 4.3 µM | IC50 [3, 25]: 6.6 ± 4.7 µM | IC50 [3, 26]: 6.6 ± 4.7 µM
